Our source for the Ki values is patent US20260242353A1, “HETEROARYL DERIVATIVES AS DDRs INHIBITORS” (CHIESI FARMACEUTICI S.P.A., priority 2022, published 2026).

Like-named read-outs stand apart in the source and are kept apart here.

The target in experiment [1] is T1, DDR1 (Homo sapiens, UniProt Q08345).
T1 construct: purchased Carna Biosciences
Briefly: LanthaScreen Europium Kinase Binding assay, DDR1. In a few lines:
(§1)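 Compounds were incubated 1 h at rt with 5 nM DDR1 plus 20 nM Kinase Tracer 178, or 5 nM DDR2 plus 10 nM tracer, and 2 nM Eu anti-GST antibody in HEPES pH 7.5 buffer. Read-out was the TR-FRET 665/615 nm ratio. IC50 came from a 4-parameter fit and was converted to Ki by Cheng-Prusoff.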
A general note: Time-resolved FRET reads energy transfer from a long-lived donor to a nearby acceptor.

Experiment [2] deals with T2, DDR2 (Homo sapiens, UniProt Q16832).
T2 construct: purchased Life Technologies
T2 sequence (Q16832 22-855): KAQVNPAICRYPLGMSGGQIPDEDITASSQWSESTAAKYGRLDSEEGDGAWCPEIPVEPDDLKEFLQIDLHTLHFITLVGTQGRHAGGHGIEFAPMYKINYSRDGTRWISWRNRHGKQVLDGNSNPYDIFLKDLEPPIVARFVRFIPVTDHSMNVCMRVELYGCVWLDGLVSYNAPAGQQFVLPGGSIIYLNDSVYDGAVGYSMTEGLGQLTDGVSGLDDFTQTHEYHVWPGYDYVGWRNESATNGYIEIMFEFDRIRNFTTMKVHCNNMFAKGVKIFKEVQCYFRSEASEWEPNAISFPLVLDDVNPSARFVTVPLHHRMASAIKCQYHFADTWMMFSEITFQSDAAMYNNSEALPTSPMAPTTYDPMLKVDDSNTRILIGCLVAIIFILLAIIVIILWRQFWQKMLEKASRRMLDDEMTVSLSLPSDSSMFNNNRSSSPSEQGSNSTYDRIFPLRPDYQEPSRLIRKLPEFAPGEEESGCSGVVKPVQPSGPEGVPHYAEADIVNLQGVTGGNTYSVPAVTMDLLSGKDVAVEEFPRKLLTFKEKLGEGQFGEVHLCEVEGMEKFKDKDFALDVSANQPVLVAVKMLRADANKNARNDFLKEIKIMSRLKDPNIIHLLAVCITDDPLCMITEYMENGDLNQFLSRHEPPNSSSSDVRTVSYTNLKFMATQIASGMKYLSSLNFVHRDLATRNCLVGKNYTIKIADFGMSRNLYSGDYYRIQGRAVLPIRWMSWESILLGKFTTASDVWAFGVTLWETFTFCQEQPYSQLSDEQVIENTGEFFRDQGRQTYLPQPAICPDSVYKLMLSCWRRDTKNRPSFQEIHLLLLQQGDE
Description: LanthaScreen Europium Kinase Binding assay, DDR2. A digest of the protocol:
as §1

[3] abbreviates: 5 nM DDR1, 20 nM Kinase Tracer 178, 1 h at rt, Ki from IC50 by Cheng-Prusoff, read-out: Ki DDR1.
The mark [4] stands for this setting: 5 nM DDR2, 10 nM Kinase Tracer 178, 1 h at rt, Ki from IC50 by Cheng-Prusoff, read-out: Ki DDR2.
Where [5] appears, read: same binding assay, 5 nM DDR1, 20 nM Kinase Tracer 178, read-out: DDR1 Ki.
The mark [6] stands for this setting: same binding assay, 5 nM DDR2, 10 nM Kinase Tracer 178, read-out: DDR2 Ki.

T1 sequence (Q08345 19-913): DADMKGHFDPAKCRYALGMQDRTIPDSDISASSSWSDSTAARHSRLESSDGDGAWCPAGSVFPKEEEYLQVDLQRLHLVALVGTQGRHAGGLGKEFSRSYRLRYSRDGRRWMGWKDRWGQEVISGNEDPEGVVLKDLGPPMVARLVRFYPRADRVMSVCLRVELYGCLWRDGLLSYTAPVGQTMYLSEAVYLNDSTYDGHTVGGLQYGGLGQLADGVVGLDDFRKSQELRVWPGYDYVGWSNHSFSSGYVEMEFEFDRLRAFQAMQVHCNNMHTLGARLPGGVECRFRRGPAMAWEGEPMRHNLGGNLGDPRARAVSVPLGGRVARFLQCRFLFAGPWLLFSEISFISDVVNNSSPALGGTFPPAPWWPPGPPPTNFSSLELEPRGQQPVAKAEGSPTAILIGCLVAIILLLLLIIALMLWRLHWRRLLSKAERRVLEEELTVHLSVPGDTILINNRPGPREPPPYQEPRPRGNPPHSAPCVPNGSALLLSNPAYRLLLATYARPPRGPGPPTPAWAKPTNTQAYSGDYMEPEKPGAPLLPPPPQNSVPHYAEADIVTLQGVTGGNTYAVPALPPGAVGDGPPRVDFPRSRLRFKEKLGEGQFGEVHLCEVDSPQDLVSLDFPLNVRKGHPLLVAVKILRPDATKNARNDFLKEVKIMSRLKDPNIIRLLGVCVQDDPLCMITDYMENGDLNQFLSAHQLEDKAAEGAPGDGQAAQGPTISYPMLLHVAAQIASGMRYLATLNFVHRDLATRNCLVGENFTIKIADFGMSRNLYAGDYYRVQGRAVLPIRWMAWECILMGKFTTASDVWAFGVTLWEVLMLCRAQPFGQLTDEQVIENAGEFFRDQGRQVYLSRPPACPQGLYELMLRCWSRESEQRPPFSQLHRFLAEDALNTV

As to `COc1ccc(C(=O)Nc2cncc(C(F)(F)F)c2)cc1C1CCN(c2cnn3cccnc23)C1` (centres unmarked) [Example 112, 4-methoxy-3-(1-(pyrazolo[1,5-a]pyrimidin-3-yl)pyrrolidin-3-yl)-N-(5-(trifluoromethyl)pyridin-3-yl)benzamide], the results for the Ki in experiment [1] (setting [3]) and in experiment [2] (setting [4]) were under 5 nM and 5 to 25 nM, respectively.

Consider `O=C(Nc1cncc(C(F)(F)F)c1)c1ccc(OC(F)F)c(C2CCN(c3cncnc3)C2)c1` (centres unmarked) [Example 113, 4-(difluoromethoxy)-3-(1-(pyrimidin-5-yl)pyrrolidin-3-yl)-N-(5-(trifluoromethyl)pyridin-3-yl)benzamide], for which the Ki in experiment [1] (setting [3]) and in experiment [2] (setting [4]) was under 5 nM each time.

In the case of `O=C(Nc1cncc(C(F)(F)F)c1)c1ccc(C(F)F)c(C2CCN(c3cncnc3)C2)c1` (centres unmarked) [Example 120, 4-(difluoromethyl)-3-(1-(pyrimidin-5-yl)pyrrolidin-3-yl)-N-(5-(trifluoromethyl)pyridin-3-yl)benzamide], the Ki (in general, the equilibrium dissociation constant of an inhibitor or competing ligand from its target) in experiment [1] (setting [3]) lay in the range of 5 to 25 nM; in experiment [2] (setting [4]) it was 25 to 100 nM.

As to `Cc1ccc(C(=O)c2cncc(C(F)(F)F)c2)cc1[C@@H]1CCN(c2cnc3ccc(CO)cn23)C1` [Example 123, (S)-(3-(1-(6-(hydroxymethyl)imidazo[1,2-a]pyridin-3-yl)pyrrolidin-3-yl)-4-methylphenyl)(5-(trifluoromethyl)pyridin-3-yl)methanone], the Ki in experiment [1] (setting [3]) and in experiment [2] (setting [4]) was under 5 nM throughout.

For the compound `Cn1nc(NC(=O)c2ccc(C(F)F)c(C3CCN(c4cncnc4)C3)c2)cc1C(C)(C)C` (centres unmarked) [Example 124, N-(5-(tert-butyl)-1-methyl-1H-pyrazol-3-yl)-4-(difluoromethyl)-3-(1-(pyrimidin-5-yl)pyrrolidin-3-yl)benzamide], the Ki in experiment [1] (setting [3]) was under 5 nM; in experiment [2] (setting [4]) it was 5 to 25 nM.

`Cc1ccc(C(=O)Nc2cncc(C(F)(F)F)c2)cc1[C@@H]1CCN(c2ncnc3cc(Br)sc23)C1` [Example 125, (S)-3-(1-(6-bromothieno[3,2-d]pyrimidin-4-yl)pyrrolidin-3-yl)-4-methyl-N-(5-(trifluoromethyl)pyridin-3-yl)benzamide]: the Ki in experiment [1] (setting [3]) and in experiment [2] (setting [4]) was 5 to 25 nM each time.

Take `Cc1ccc(C(=O)Nc2cncc(C(F)(F)F)c2)cc1[C@@H]1CCN(c2ncnc3cc(C(=O)N4CCN(C)CC4)sc23)C1` [Example 126, (S)-4-methyl-3-(1-(6-(4-methylpiperazine-1-carbonyl)thieno[3,2-d]pyrimidin-4-yl)pyrrolidin-3-yl)-N-(5-(trifluoromethyl)pyridin-3-yl)benzamide]: the Ki in experiment [1] (setting [3]) was under 5 nM; in experiment [2] (setting [4]), 5 to 25 nM.

As to `CNC(=O)c1cc(N2CCC(c3cc(C(=O)Nc4cncc(C(F)(F)F)c4)ccc3OC)C2)ccn1` (centres unmarked) [Example 127, 4-(3-(2-methoxy-5-((5-(trifluoromethyl)pyridin-3-yl)carbamoyl)phenyl)pyrrolidin-1-yl)-N-methylpicolinamide], the Ki in experiment [1] (setting [3]) is under 5 nM; in experiment [2] (setting [4]), 5 to 25 nM.

Take `Cc1ccc(C(=O)Nc2cncc(C(F)(F)F)c2)cc1[C@@H]1CCN(c2nccn3cncc23)C1` [Example 128, (S)-3-(1-(imidazo[1,5-a]pyrazin-8-yl)pyrrolidin-3-yl)-4-methyl-N-(5-(trifluoromethyl)pyridin-3-yl)benzamide]: the Ki in experiment [1] (setting [3]) was under 5 nM; in experiment [2] (setting [4]), 5 to 25 nM.

Turning to `Cc1ccc(C(=O)Nc2cncc(C(F)(F)F)c2)cc1[C@@H]1CCN(c2ncnc3[nH]ncc23)C1` [Example 129, (S)-3-(1-(1H-pyrazolo[3,4-d]pyrimidin-4-yl)pyrrolidin-3-yl)-4-methyl-N-(5-(trifluoromethyl)pyridin-3-yl)benzamide], the Ki in experiment [1] (setting [3]) and in experiment [2] (setting [4]) was under 5 nM each time.

For `CC(=O)Nc1ncc(N2CC[C@@H](c3cc(C(=O)Nc4cncc(C(F)(F)F)c4)ccc3C)C2)cn1` [Example 130, (S)-3-(1-(2-acetamidopyrimidin-5-yl)pyrrolidin-3-yl)-4-methyl-N-(5-(trifluoromethyl)pyridin-3-yl)benzamide], the Ki was under 5 nM in experiment [1] (setting [3]) and 5 to 25 nM in experiment [2] (setting [4]).

Regarding `Cc1ccc(C(=O)Nc2cc(C(C)(C)C)n(C)n2)cc1[C@@H]1CCN(c2ncnc3ccsc23)C1` [Example 131, (S)-N-(5-(tert-butyl)-1-methyl-1H-pyrazol-3-yl)-4-methyl-3-(1-(thieno[3,2-d]pyrimidin-4-yl)pyrrolidin-3-yl)benzamide], the Ki in experiment [1] (setting [3]) and in experiment [2] (setting [4]) was under 5 nM in each case.

On to `Cc1ccc(C(=O)Nc2cncc(C(F)(F)F)c2)cc1N1CC(Oc2cncc(C(N)=O)c2)C1` [Example 132, 5-((1-(2-methyl-5-((5-(trifluoromethyl)pyridin-3-yl)carbamoyl)phenyl)azetidin-3-yl)oxy)nicotinamide], for which the inhibition constant (Ki) was under 5 nM in experiment [1] (setting [3]) and 5 to 25 nM in experiment [2] (setting [4]).

Regarding `CC(=O)Nc1cncc(OC2CN(c3cc(C(=O)Nc4cncc(C(F)(F)F)c4)ccc3C)C2)c1` [Example 133, 3-(3-((5-acetamidopyridin-3-yl)oxy)azetidin-1-yl)-4-methyl-N-(5-(trifluoromethyl)pyridin-3-yl)benzamide], the inhibitory constant (Ki) in experiment [1] (setting [3]) and in experiment [2] (setting [4]) was under 5 nM each time.

Regarding `Cc1ccc(C(=O)Nc2cncc(C(F)(F)F)c2)cc1[C@@H]1CCN(Cc2cnc3ccccn23)C1` [Example C1, (S)-3-(1-(imidazo[1,2-a]pyridin-3-ylmethyl)pyrrolidin-3-yl)-4-methyl-N-(5 (trifluoromethyl)pyridin-3-yl)benzamide], the figures for the Ki in experiment [1] (setting [5]) and in experiment [2] (setting [6]) were 148 nM and 588 nM, respectively.

Turning to `Cc1ccc(C(=O)Nc2cncc(C(F)(F)F)c2)cc1[C@@H]1CCN(CC(N)=O)C1` [Example C2, (S)-3-(1-(2-amino-2-oxoethyl)pyrrolidin-3-yl)-4-methyl-N-(5-(trifluoromethyl)pyridin-3-yl)benzamide], the Ki in experiment [1] (setting [5]) was 487 nM; in experiment [2] (setting [6]) it was 588 nM.
